Measured values from PMC3064985 (Bioorganic & medicinal chemistry, 2010).

How the values were obtained:
[1] = system: Poly d(A-T)n; experiment: Thermal melting; assay type: binding; settings: for Increase in ΔTm on replacing one furan ring with thiophene: compared with bifuran 1c
[2] = system: cultured L6 rat myoblast cells; experiment: Cytotoxicity, Alamar Blue assay; assay type: cell-based; settings: read-out: Cytotoxicity IC50
[3] = system: Plasmodium falciparum K1; experiment: In vitro activity against P. falciparum; assay type: cell-based; settings: read-out: P. falciparum IC50; strain K1; average of duplicate determination
[4] = system: T. b. rhodesiense STIB900; experiment: STIB900 acute mouse model of trypanosomiasis; assay type: in vivo; settings: 5 mg/kg ip, 4 consecutive days

Compound	Increase in ΔTm on replacing one furan ring with thiophene [1]	Survival (average days of survival) [4] [days]	also measured
Cl.N=C(N)c1ccc(-c2ccc(-c3ccc(C(=N)N)s3)o2)cc1 [Compound 1d, 5-[5-(4-Amidinophenyl)-furan-2-yl]-thiophene-2-carboxamidine hydrochloride]	approximately 5 °C	–	–
6-(5′-Amidino-2,2′-bifuran-5-yl)-nicotinamidine acetate [Compound 1h]	–	25.5	ΔTm, increase in thermal melting of Poly d(A-T)n ([1]; ratio 0.3 mol compound per mole DNA, CAC 10 buffer pH 7.0): 6.0 °C; IC50 [2]: 26.9 µM; IC50 [3]: 6.4 nM; Cures (mice that survive and are parasite free for 60 days) ([4]; groups of four mice): 0/4
Cl.N=C(N)c1ccc(-c2ccc(-c3ccc(C(=N)N)o3)s2)cc1 [Compound 1f, 5-[5-(4-Amidinophenyl)-thiophen-2-yl]-furan-2-carboxamidine hydrochloride]	approximately 5 °C	–	–
Cl.N=C(N)c1ccc(-c2ccc(-c3ccc(C(=N)N)s3)s2)cc1 [Compound 1e, 5′-(4-Amidinophenyl)-2,2′-bithiophene-5-carboxamidine hydrochloride]	–	26.25	–
